# Starred links: 1 amine or outer side, 2 acyl side, 3 side chain; linkers in the order of their positions; H or OH if unused. Non-standard residues stand in square brackets, D forms with d. *: point of attachment. γGlu = O=C(O)[C@H](CCC(=O)[*:2])N[*:1]; βAsp = O=C(O)[C@H](CC(=O)[*:2])N[*:1]; C12 diacid = O=C(O)CCCCCCCCCCC(=O)*; Myristoyl = CCCCCCCCCCCCCC(=O)*; Lauroyl = CCCCCCCCCCCC(=O)*; Decanoyl = CCCCCCCCCC(=O)*
# Key:
# [1] = system: Chymotrypsin; experiment: Inhibition of enzymatic degradation of a model GLP-1 (FRET substrate) by chymotrypsin; format: biochemical; settings: for EC50: read-out: EC50 Chymotrypsin (0.001 mg/ml), 0.001 mg/ml chymotrypsin, 37° C., ± standard error if at least 3 measurements
# Excerpt: (§1) The use of Förster resonance energy transfer (FRET), also known as fluorescence resonance energy transfer, substrates to monitor activity of proteolytic enzymes is known in the field (for example Anjuere, F. et al. (1993). Biochem J 291 (Pt 3), 869-73).
# (§2) Model GLP-1 analogue was designed as FRET substrate by incorporation of 7-Methoxycoumarin-4-acetic acid (MCA) group as the donor chromophore and dinitrophenol group (DNP) as the acceptor chromophore.
# (§3) An assay following the increase in fluorescence as a function of time was established in 96 well format using Varioskan Flash Multimode Meter (Thermo Scientific). Each well contained 70 μl of Dulbecco's phosphate buffer saline (Invitrogen catalogue #14190-094), 10 μl of 100 μM GLP-1 FRET substrate, 10 μl of N-terminally acylated peptide or oligopeptide of the invention in varying concentration and 10 μl of a stock solution of an enzyme (chymotrypsin, trypsin, elastase, etc.). The incubations were performed at 37° C. Fluorescence (320 nm excitation wavelength and 405 nm emission wavelength) was measured immediately after addition of the enzyme to the 96 well plate and also every minute for at least the next 30 minutes. The concentration of the enzyme was optimized to allow determination of slopes for the time course of initial fluorescence increase with and without the N-terminally acylated peptides or oligopeptides of the invention. The slopes were determined by linear regression of the linear part of the fluorescence trace (for example, the first 10 min of the reaction). Each assay was performed in duplicate and average of the two traces was included in the calculations. The relative effect of N-terminally acylated peptide or oligopeptides of the invention on enzymatic degradation of GLP-1 FRET substrate was obtained by comparison of the slopes achieved by the same concentration of the N-terminally acylated peptide or oligopeptides. […] This was done by plotting the slopes achieved with different concentrations of the N-terminally acylated peptide or oligopeptides of the invention as a function of their concentrations and fitting the experimental results using, for example, sigmoidal logistic regression (2 parameters, Sigma Plot v 11). Inhibition constants for the interaction between the N-terminally acylated peptide or oligopeptides of the invention and proteolytic enzymes were also obtained by performing the assay described above with varying concentrations of the inhibitor and substrate and analyzing the results, for example, by double reciprocal transformation as known to the person skilled in the art and described for example in Hubalek, F. et al., J. Med. Chem. 47, 1760-1766 (2004).
# (§4) The EC50 was determined for the following compounds. EC50±standard error is reported if the results of at least 3 independent measurements were available.
# [2] = system: Trypsin; experiment: Inhibition of enzymatic degradation of a model GLP-1 (FRET substrate) by trypsin; format: biochemical; settings: for EC50: read-out: EC50 Trypsin (0.001 mg/ml), 0.001 mg/ml trypsin, 37° C.
# Excerpt: as §1, §2, §3, §4
# [3] = Hydrophobicity: retention time during reverse phase HPLC; format: physicochemical; settings: Acquity CSH C18; pH 7.2 buffer/CH3CN gradient; 40° C.
# Excerpt: The retention time (RT) during reverse phase HPLC was taken as a measure of hydrophobicity of an N-terminally modified peptide or oligopeptide of the invention, where the connection is: The longer the RT, the more hydrophobic N-terminally modified peptide or oligopeptide. The following running conditions were applied during HPLC analysis:
# Buffer B: 70% (v/v) aq. CH3CN
# [4] = compound 0.1 mM, buffer containing 8% DMSO
EC50 [1] [µM],EC50 [2] [µM],Substance,RT (retention time during reverse phase HPLC as a measure of hydrophobicity) [3] [min],other results
–,–,Ala-Ala-Pro-Phe-OH [Example 14],3.08,Slope of the initial increase in fluorescence obtained during incubation with 0.001 mg/ml Chymotrypsin ([1]; compound 1 mM): 3.53; Slope of the initial increase in fluorescence obtained during incubation with 0.001 mg/ml Trypsin ([2]; compound 1 mM): 4.46
> 500,–,N-decanoyl-Ala-Ala-Pro-Arg-OH (Decanoyl-AAPR-OH; SMILES CCCCCCCCCC(=O)N[C@@H](C)C(=O)N[C@@H](C)C(=O)N1CCC[C@H]1C(=O)N[C@@H](CCCNC(=N)N)C(=O)O) [Example 20],3.79,–
–,–,N-dodecandioyl-Ala-Ala-Pro-Phe-OH ({C12 diacid}-AAPF-OH) [Example 15],3.13,Slope of the initial increase in fluorescence obtained during incubation with 0.001 mg/ml Chymotrypsin ([1]; compound 1 mM): 2.07; Slope of the initial increase in fluorescence obtained during incubation with 0.001 mg/ml Trypsin ([2]; compound 1 mM): 4.17
–,–,N-dodecanoyl-Aib-Aib-Pro-Phe-OH [Example 7],8.06,Slope of the initial increase in fluorescence obtained during incubation with 0.001 mg/ml Chymotrypsin ([1]; compound 1 mM): 0.34; Slope of the initial increase in fluorescence obtained during incubation with 0.001 mg/ml Trypsin ([2]; compound 1 mM): 0.49
121,38,N-dodecanoyl-Ala-Ala-Ala-Ala-Pro-Phe-OH [Example 19],6.57,–
167,–,N-dodecanoyl-Ala-Ala-Ala-Pro-Phe-OH [Example 18],6.59,–
–,–,N-dodecanoyl-Ala-Ala-Ala-Pro-Tyr-OH [Example 56],5.74,"Slope of the initial increase in fluorescence obtained during incubation with 0.001 mg/ml Chymotrypsin [1, 4]: 0.59; Slope of the initial increase in fluorescence obtained during incubation with 0.001 mg/ml Trypsin [2, 4]: 1.92"
–,–,N-dodecanoyl-Ala-Ala-Ala-Tyr-OH (Lauroyl-AAAY-OH; SMILES CCCCCCCCCCCC(=O)N[C@@H](C)C(=O)N[C@@H](C)C(=O)N[C@@H](C)C(=O)N[C@@H](Cc1ccc(O)cc1)C(=O)O) [Example 57],5.73,"Slope of the initial increase in fluorescence obtained during incubation with 0.001 mg/ml Chymotrypsin [1, 4]: 1.65; Slope of the initial increase in fluorescence obtained during incubation with 0.001 mg/ml Trypsin [2, 4]: 1.59"
–,–,N-dodecanoyl-Ala-Ala-Arg-Tyr-OH (Lauroyl-AARY-OH; SMILES CCCCCCCCCCCC(=O)N[C@@H](C)C(=O)N[C@@H](C)C(=O)N[C@@H](CCCNC(=N)N)C(=O)N[C@@H](Cc1ccc(O)cc1)C(=O)O) [Example 58],4.87,"Slope of the initial increase in fluorescence obtained during incubation with 0.001 mg/ml Chymotrypsin [1, 4]: 0.28; Slope of the initial increase in fluorescence obtained during incubation with 0.001 mg/ml Trypsin [2, 4]: 1.98"
–,–,N-dodecanoyl-Ala-Ala-Asn-Tyr-OH (Lauroyl-AANY-OH; SMILES CCCCCCCCCCCC(=O)N[C@@H](C)C(=O)N[C@@H](C)C(=O)N[C@@H](CC(N)=O)C(=O)N[C@@H](Cc1ccc(O)cc1)C(=O)O) [Example 59],7.88,"Slope of the initial increase in fluorescence obtained during incubation with 0.001 mg/ml Chymotrypsin [1, 4]: 1.79; Slope of the initial increase in fluorescence obtained during incubation with 0.001 mg/ml Trypsin [2, 4]: 1.72"
–,–,N-dodecanoyl-Ala-Ala-Asp-Tyr-OH (Lauroyl-AADY-OH; SMILES CCCCCCCCCCCC(=O)N[C@@H](C)C(=O)N[C@@H](C)C(=O)N[C@@H](CC(=O)O)C(=O)N[C@@H](Cc1ccc(O)cc1)C(=O)O) [Example 60],4.33,"Slope of the initial increase in fluorescence obtained during incubation with 0.001 mg/ml Chymotrypsin [1, 4]: 0.91; Slope of the initial increase in fluorescence obtained during incubation with 0.001 mg/ml Trypsin [2, 4]: 1.73"
–,–,N-dodecanoyl-Ala-Ala-Gln-Tyr-OH (Lauroyl-AAQY-OH; SMILES CCCCCCCCCCCC(=O)N[C@@H](C)C(=O)N[C@@H](C)C(=O)N[C@@H](CCC(N)=O)C(=O)N[C@@H](Cc1ccc(O)cc1)C(=O)O) [Example 61],8.28,"Slope of the initial increase in fluorescence obtained during incubation with 0.001 mg/ml Chymotrypsin [1, 4]: 2.20; Slope of the initial increase in fluorescence obtained during incubation with 0.001 mg/ml Trypsin [2, 4]: 2.07"
379,–,N-dodecanoyl-Ala-Ala-Pro-Phe-Pro-OH [Example 24],6.88,–
–,–,N-dodecanoyl-Ala-Ala-Pro-Tyr-OH [Example 17] (Lauroyl-AAPY-OH; SMILES CCCCCCCCCCCC(=O)N[C@@H](C)C(=O)N[C@@H](C)C(=O)N1CCC[C@H]1C(=O)N[C@@H](Cc1ccc(O)cc1)C(=O)O),5.83,–
> 500,–,N-dodecanoyl-γGlu-Ala-Ala-Pro-Arg-OH [Example 25],3.66,–
> 500,–,N-dodecanoyl-γGlu-Ala-Pro-Arg-OH (Lauroyl-[γGlu]APR-OH; SMILES CCCCCCCCCCCC(=O)N[C@@H](CCC(=O)N[C@@H](C)C(=O)N1CCC[C@H]1C(=O)N[C@@H](CCCNC(=N)N)C(=O)O)C(=O)O) [Example 21],3.66,–
> 500,–,N-dodecanoyl-γGlu-Ala-Pro-Phe-OH (Lauroyl-[γGlu]APF-OH; SMILES CCCCCCCCCCCC(=O)N[C@@H](CCC(=O)N[C@@H](C)C(=O)N1CCC[C@H]1C(=O)N[C@@H](Cc1ccccc1)C(=O)O)C(=O)O) [Example 22],4.09,–
51,93,N-tetradecanoyl-Thr-Ala-Ala-Pro-Phe-OH [Example 173],–,–
58,112,N-tetradecanoyl-Thr-Ala-Ala-Pro-Tyr-OH [Example 158],–,–
38,43,N-tetradecanoyl-Trp-Pro-Tyr-OH [Example 153],–,–
54,343,N-tetradecanoyl-bAsp-Ala-Ala-Pro-Phe-OH [Example 164],–,–
154,120,N-tetradecanoyl-bAsp-Ala-Pro-Phe-OH (Myristoyl-[βAsp]APF-OH; SMILES CCCCCCCCCCCCCC(=O)N[C@@H](CC(=O)N[C@@H](C)C(=O)N1CCC[C@H]1C(=O)N[C@@H](Cc1ccccc1)C(=O)O)C(=O)O) [Example 165],–,–
6,75,N-tetradecanoyl-eLys-His-Ala-Arg-Pro-Phe-OH [Example 196],–,–
> 500,–,N-tetradecanoyl-βAla-βAla-βAla-βAla-Pro-Phe-OH [Example 137],7.7,–
84,80,N-tetradecanoyl-γGlu-Ala-Arg-Pro-Phe-OH [Example 179],–,–
95,200,N-tetradecanoyl-γGlu-Ala-Pro-D-Trp-OH [Example 177],–,–
105,63,N-tetradecanoyl-γGlu-Ala-Pro-Trp-OH (Myristoyl-[γGlu]APW-OH; SMILES CCCCCCCCCCCCCC(=O)N[C@@H](CCC(=O)N[C@@H](C)C(=O)N1CCC[C@H]1C(=O)N[C@@H](Cc1c[nH]c2ccccc12)C(=O)O)C(=O)O) [Example 176],–,–
428,> 500,N-tetradecanoyl-γGlu-D-Ala-D-Ala-D-Pro-D-Phe-OH [Example 156],–,–
19,84,N-tetradecanoyl-γGlu-His-Ala-Arg-Pro-Phe-OH [Example 194],–,–
> 500,–,N-tetradecanoyl-γGlu-βAla-βAla-Pro-Phe-OH [Example 139],4.95,–

# From patent US20150038435A1, “N-TERMINALLY MODIFIED OLIGOPEPTIDES AND USES THEREOF” (Novo Nordisk A/S, priority 2012, published 2015)
